According to patent US20230203060A1 (GENFLEET THERAPEUTICS (SHANGHAI) INC., priority 2020, published 2023):
Read-outs that look alike come from different tables or passages of the source.

Experiments:
KRAS G12C = molecular target: T1, KRAS G12C (Homo sapiens, UniProt P01116, G12C); experiment: KRAS G12C NEA-HTRF experiment (SOS1-catalyzed displacement of GDP by GTP); type: biochemical
T1 construct: purchased Reactionbiology
Text: Raw materials and instruments: KRAS G12C (his-tag) purchased from Reactionbiology; batch number 3496; SOS1 purchased from Reactionbiology; batch number: 3501; GTP purchased from Sigma; article number: G8877; batch number: SLBV1450; Tris-HC1 purchased from Sigma; EDTA purchased from absin; article number: abs42017668; batch number: JE20; NaCl purchased from Sigma; article number: 55886; batch number: SLBW4193; MgCl2 purchased from Shyuanye; article number: R21455; batch number: L07S9G69806; HEPES purchased from Life Technologies; article number: 15630-080; batch number: 2037042; DTT purchased from Thermo Fisher; article number: R0862; batch number: 00608918; Triton X-100 purchased from Sigma; article number: T8787-100 ML; batch number: SLBW7103; DY647-labeled GDP purchased from Jena Bioscience; article number: NU-840-647P1; batch number: BM019-045; Anti-6H1S-Tb purchased from Cisbio; article number: 61H12TLA; batch number: 13A; Bradford Assay Kit purchased from Thermo Fisher; article number: 23246; batch number: UG287474; white opaque 96-well plate purchased from Cisbio; article number: 66PL96025; batch number: N°06; NAP-5 column purchased from GE Healthcare; article number: 17085301; batch number: 16995164; mircoplate reader purchased from PerkinElmer; model: Envision MLD2105-0020; equipment number 1050369. The effect of compounds on SOS1-catalyzed displacement of GDP by GTP on KRAS protein was examined using a homogeneous time-resolved fluorescence (HTRF) method. 30 μM 6×his-tagged KRAS G12C recombinant protein was incubated with 80 μM fluorescent dye DY647-labeled GDP in labeling buffer (1 mM DTT, 7.5 mM EDTA, 25 mM Tris-HCl, 45 mM NaCl) at 20° C. in the dark for 2 hours, purified using NAP-5 column, and then protein quantification was performed with Bradford Assay Kit after purification to determine the concentration of KRAS […] 3.16-fold gradient concentration stock solution of 1000× compound was prepared with DMSO, and diluted 250-fold to 4× compound stock solution with reaction buffer (40 mM HEPES, 10 mM MgCl2, 1 mM DTT, 0.002% Triton X-100). KRAS G12C-GDP/Tb working solution (40 nM KRAS […] Tb) and SOS1/GTP working solution (0.2 μM SOS1, 200 μM GTP) were prepared using the reaction buffer. A white opaque 96-well plate was taken, and 5 μL of 4× compound stock solution and 10 μL of KRAS G12C-GDP/Tb working solution were added to each well. 5 μL of reaction buffer instead of 4x compound stock solution was used in the control well. After incubation in the dark for 15 minutes at 20° C., 5μL of SOS1/GTP working solution was added thereto, and the fluorescence value (excitation wavelength: 320 nm, emission wavelength: 615 nm and 665 nm) was read after incubating at 20° C. in the dark for 2 hours. Another T0 group was set up with 10 μL reaction buffer+10 μL KRAS G12C-GDP/Tb working solution, and the fluorescence value was read directly by the microplate reader. The fluorescence signal ratio RLU=(665 nm signal/615 nm signal)×10^4; and the compound inhibition rate IR (%)=(RLUcompound-RLUcontrol)/(RLUT0-RLUcontrol)×100% were calculated. The IC50 value was calculated by fitting the gradient dilution concentration of compound and the corresponding inhibition rate with the four-parameter method. The NEA activity of the compounds prepared in the above embodiments of the present disclosure was 0.0001 μM to 1 μM; the inhibitory activity of some compounds on KRAS G12C mutant MIA PaCa-2 cells was 0.001 μM to 0.5 μM or 0.001 μM to 0.1 μM.

[1] = tested on: KRAS G12C mutant NCI-H358 cells; experiment: Cell proliferation inhibition experiment, 3D spheroid, CellTiter-Glo, NCI-H358; type: cell-based, human; conditions: NCI-H358 (KRAS G12C mutant) 3D spheroid, 5 days with compound, CellTiter-Glo, read-out: H358 IC50
In short: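 CellTiter-Glo luminescence after 5 days' compound treatment (3.16-fold series, 0.1% DMSO) of overnight-formed spheroids in 2% FBS medium: H358 seeded at 800 cells/well in RPMI-1640, A549 at 400 cells/well in F-12K. IC50 derived by four-parameter fit of inhibition normalized to DMSO control and blank.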

[2] = tested on: KRAS G12C mutant MIA PaCa-2 cells; experiment: Cell proliferation inhibition experiment, 3D spheroid, CellTiter-Glo, MIA PaCa-2; type: cell-based, human; conditions: Homo sapiens, MIA PaCa-2, 120 h, 3D cell model in 384-well spheroid plate, 5 days, CellTiter-Glo; read-out: MIA-PaCa2 IC50
In short: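 Luminescent ATP read-out (CellTiter-Glo) after 5-day compound treatment of spheroids formed overnight from 200 MIA PaCa-2 cells/well; compounds in 3.16-fold series, 0.1% DMSO final. IC50 derived by four-parameter fit of percent inhibition, normalized to DMSO control and medium blank.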

T1 sequence (P01116 1-188 isoform P01116-2 G12C): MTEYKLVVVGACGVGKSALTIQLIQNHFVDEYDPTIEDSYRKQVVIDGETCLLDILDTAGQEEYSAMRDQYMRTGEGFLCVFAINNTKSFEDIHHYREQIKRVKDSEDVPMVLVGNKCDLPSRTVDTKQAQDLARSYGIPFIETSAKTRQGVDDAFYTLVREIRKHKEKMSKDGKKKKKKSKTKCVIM

Row | IC50 (KRAS G12C) | IC50 ([1]; Homo sapiens, NCI-H358, 120 h) | IC50 [2] | IC50 [1] | Structure (SMILES)
1 | 0.321 µM | 0.155 µM | – | – | C=CC(=O)N1CCN2C(=O)c3c(N4CC(N5CC(F)C5)CC4(C)C)nc(-c4ccccc4F)c(Cl)c3OC[C@H]2C1 (single isomer, unassigned) [Z480-2]
2 | 0.423 µM | 0.0296 µM | – | – | C=CC(=O)N1CCN2C(=O)c3c(N4CCN(CCOC)C(C)(C)C4)nc(-c4ccccc4F)c(Cl)c3OCC2C1 (stereo not drawn) [Z478, 8-acryloyl-4-chloro-3-(2-fluorophenyl)-1-(4-(2-methoxyethyl)-3,3-dimethylpiperazin-1-yl)-6,6a,7,8,9,10-hexahydro-12H-pyrazino[2,1-c]pyrido[3,4-f][1,4]oxazepin-12-one]
3 | 0.252 µM | – | > 1 µM | – | C=CC(=O)N1CCN2C(=O)c3c(N4C[C@H](C(=O)O)CC4(C)C)nc(-c4c(O)cccc4F)c(Cl)c3OC[C@H]2C1 (single isomer, unassigned) [Z458-2]
4 | 0.194 µM | 0.0513 µM | – | – | C=CC(=O)N1CCN2C(=O)c3c(N4C[C@@H](O)[C@@H]4C)nc(-c4c(O)cccc4F)c(Cl)c3OC[C@H]2C1 (single isomer, unassigned) [Z102-1]
5 | 0.033 µM | – | – | – | C=CC(=O)N1CCN2C(=O)c3c(N4Cc5nncn5CC4C)nc(-c4c(O)cccc4F)c(Cl)c3OC[C@H]2C1 (stereo partly drawn) [Z277-1, (6aR)-8-acryloyl-4-chloro-3-(2-fluoro-6-hydroxyphenyl)-1-(6-methyl-5,6-dihydro-[1,2,4]triazolo [4,3-a]pyrazin-7(8H)-yl)-6,6a,7,8,9,10-hexahydro-12H-pyrazino[2,1-c]pyrido[3,4-f][1,4]oxazepin-12-one]
6 | 0.169 µM | 0.016 µM | – | – | C=CC(=O)N1CCN2C(=O)c3c(N4C[C@@H](C)O[C@H](C)C4)nc(-c4c(O)cccc4F)c(Cl)c3OC[C@H]2C1 [Z248-2, (6aR)-8-acryloyl-4-chloro-1-((2R,6R)-2,6-dimethylmorpholino)-3-(2-fluoro-6-hydroxyphenyl)-6,6a,7,8,9,10-hexahydro-12H-pyrazino[2,1-c]pyrido[3,4-f][1,4]oxazepin-12-one]
7 | > 10 µM | – | – | – | C=CC(=O)N1CCN2Cc3c(C(=O)N(C)C(C)C)nc(-c4ccccc4F)c(Cl)c3OC[C@H]2C1 [Z656, (R)-8-acryloyl-4-chloro-3-(2-fluorophenyl)-N-isopropyl-N-methyl-6a,7,8,9,10,12-hexahydro-6H-pyrazino[2,1-c]pyrido[3,4-f][1,4]oxazepine-1-carboxamide]
8 | 0.764 µM | 0.049 µM | – | – | C=CC(=O)N1CCN2C(=O)c3c(N4CCC[C@@]4(C)C(=O)NC)nc(-c4c(F)cccc4OC)c(Cl)c3OC[C@H]2C1 (single isomer, unassigned) [Z466-1]
9 | 0.226 µM | – | – | – | C=CC(=O)N1CCN2C(=O)c3c(N4CC5CCC(=O)N5C[C@@H]4C)nc(-c4c(O)cccc4F)c(Cl)c3OC[C@H]2C1 (stereo partly drawn) [Z330-1, (6aR)-8-acryloyl-4-chloro-3-(2-fluoro-6-hydroxyphenyl)-1-((3S)-3-methyl-6-oxohexahydropyrrolo[1,2-c]pyrazin-2 (1H)-yl)-6,6a,7,8,9,10-hexahydro-12H-pyrazino[2,1-c]pyrido[3,4-f][1,4]oxazepin-12-one]
10 | 0.275 µM | – | – | 0.038 µM | C=CC(=O)N1CCN2C(=O)c3c(N4CCN(C)[C@H](C)[C@@H]4C)nc(-c4c(O)cccc4F)c(Cl)c3OC[C@H]2C1 (relative stereo) [Z465, (6aR)-8-acryloyl-4-chloro-3-(2-fluoro-6-hydroxyphenyl)-1-(cis-2,3,4-trimethylpiperazin-1-yl)-12-oxo-6,6a,7,8,9,10-hexahydro-12H-pyrazino[2,1-c]pyrido[3,4-f][1,4]oxazepin-12-one]
11 | 0.389 µM | – | – | – | C=CC(=O)N1CCN2C(=O)c3c(N4C[C@H](O)CC4(C)C)nc(-c4c(F)ccc(F)c4O)c(F)c3OC[C@H]2C1 (single isomer, unassigned) [Z449-2]
12 | 0.175 µM | 0.021 µM | – | – | C=CC(=O)N1CCN2C(=O)c3c(N4C[C@@H](N(C)CCOC)CC4(C)C)nc(-c4ccccc4F)c(Cl)c3OC[C@H]2C1 (single isomer, unassigned) [Z406-2]
13 | 0.431 µM | 0.0749 µM | – | – | C=CC(=O)N1CCN2C(=O)c3c(N4CC(N5CC(OC)C5)CC4(C)C)nc(-c4ccccc4F)c(Cl)c3OC[C@H]2C1 (single isomer, unassigned) [Z479-2]
14 | > 10 µM | – | – | – | C=CC(=O)N1CCN2C(=O)c3c(N4CCN(C)[C@H](C)[C@@H]4C)nc(-c4ccccc4F)c(Cl)c3OC[C@H]2C1 (single isomer, unassigned) [Z465-2]
15 | 0.593 µM | 0.0633 µM | – | – | C=CC(=O)N1CCN2C(=O)c3c(N4C[C@H](N5CCN(C)CC5)CC4(C)C)nc(-c4ccccc4F)c(F)c3OC[C@H]2C1 (single isomer, unassigned) [Z474-2]
16 | 0.383 µM | – | – | 0.038 µM | C=CC(=O)N1CCN2C(=O)c3c(N4CCC[C@@]4(C)C(=O)NC)nc(-c4c(F)cccc4OC)c(Cl)c3OC[C@H]2C1 (single isomer, unassigned) [Z466-2]
